# Tests used:
# [1] = tested on: macrophage pro-inflammatory gene expression; test: DAMP characterization assay: nutrient deprived tumor cell conditioned medium on macrophages; type: cell-based, mouse; conditions: BVT948 5 μM, 24 hours
# Description: DAMP characterization assay. B16F10 or GEMM6 cells were resuspended in DMEM deficient media with 1% penicillin-streptomycin (Gibco) and incubated for 3 days. Conditioned media was collected, filtered with a 0.2 μm filter and incubated with 0.35 U/ml proteinase K-agarose beads (Sigma Millipore) or 40 U/ml of benzonase endonuclease (Sigma Millipore) for 4 hours at 37° C. under rotation. Conditioned media was two-fold diluted with DMEM/F12 with 10% FBS, 1% penicillin-streptomycin (Gibco) and 20 ng/ml of M-CSF (Prospec), supplemented with 5 μM BVT948 (Sigma Millipore) and added to primary mural macrophages for 24 hours.
# (§1) qRT-PCR. RNA was isolated using the RNeasy Plus Mini Kit (Quiagen) and cDNA was prepared using the Reverse Transcription System (Promega) with one-hour reverse transcription process. qRT-PCR was done using the PowerUp™ SYBR™ Green Master Mix (Applied Biosystems) on a QuantStudio Pro Real-time PCR system (Applied Biosystems) with a 95° C. pretreatment of 10 min, 50 cycles of 95° C., 10 sec and 60° C., 1 min and melt curve at the end. Analysis was performed with the 2^−ΔΔCT method(136).
# [2] = tested on: macrophage M1 associated gene expression; test: Cisplatin treated transwell co-culture of macrophages and B16F10 cells, qRT-PCR; type: cell-based, mouse
# Description: Peritoneal macrophage isolation and culture. Peritoneal macrophages were done as described previously(65) from 8-week-old C57BL/6J mice (randomized, both male and female). PBS (Gibco) was injected in the mural peritoneal cavity to release the macrophages. After recovering, cells were centrifuged at 1200 rpm for 5 minutes, resuspended in DMEM high glucose, 10% FBS, 1% penicillin-streptomycin (Gibco) and plated. 2 hours after the last step, cells were washed with PBS and maintained in DMEM/F12 supplemented with 10% FBS, 1% penicillin-streptomycin and 20 ng/ml of M-CSF (Prospec) for 2 days. Macrophages were treated for 24 hours with 50 ng/ml LPS (Sigma Millipore), 100 ng/ml IFNγ (BioLegend), 300 ng/ml PAM3CSK4 (InvivoGen), 107 cells/ml heat killed Listeria Monocytogenes (HKLM) (InvivoGen), 100 ng/ml Flagellin Salmonella typhimurium standard (InvivoGen), 10 ng/ml FSL1 (InvivoGen), 2.5 ug/ml ssRNA40 (InvivoGen), 2.5 ug/ml CL 075 (Tocris), 5 μM ODN1826, 50 μM Fludarabine (SelleckChem), 50 nM Momelotinib (SelleckChem), 5 μM BVT948 (Sigma Millipore), 200 μM PTP1b inhibitor III (Santa Cruz Biotechnology Inc.), 5 μM NSC87877 (Santa Cruz Biotechnology Inc.), 50 μM PTP1b inhibitor (Cayman), 1 mM PTP Inhibitor IV (Santa Cruz Biotechnology Inc.), 1 μM TSC401, 300 nM UNC2371 (SelleckChem), 300 nM BMS777607 (SelleckChem), 300 nM LDC1267 (SelleckChem) 1.5 μg/ml recombinant Pros1 (R&D systems), 200 ng/ml recombinant Gas6 (R&D systems) or 10-500 μM Cisplatin (Tocris). All components were added as described in the text. Cell culture. B16F10 (CRL-6475, ATCC), Lewis lung carcinoma (LLC) (CRL-1642, ATCC), KPC2713 (Yuliya Pylayeva-Gupta laboratory, UNC) and MDA-MB-231 (HTB-26, ATCC) were cultured in DMEM high glucose supplemented with 10% FBS, 1% penicillin-streptomycin (Gibco). GEMM6 (Dr. Alisha Holtzhausen, UNC), KPPC4662 (Dr. Yuliya Pylayeva-Gupta laboratory, UNC), KPPC4548 (Yuliya Pylayeva-Gupta laboratory, UNC) and E0771 (CRL-3461, ATCC) were maintained in RPMI 1640 supplemented with […], 1% penicillin/streptomycin (Gibco) while PyMT cells were cultured in Ham's F-12K with 10% FBS, 1% penicillin-streptomycin (Gibco). Transwell assays were performed in 0.4 μm polyester membrane insert culture plates (Corning). 500,000 cells of each line were plated per well in DMEM/F12 supplemented with 10% FBS, 1% penicillin-streptomycin and 20 ng/ml of M-CSF for culture with mouse macrophages. SC cells (CRL-9855, ATCC) were cultured in IMDM with 10% FBS and 1% penicillin-streptomycin (Gibco). In transwell experiments with the SC cell line, cancer cells were also resuspended in IMDM media.
# as §1
# [3] = tested on: B16F10 tumors; test: Subcutaneous B16F10 melanoma tumor model; type: in vivo, mouse
# Description: Tumor implantation, treatment and harvest. For animal studies, 1*10^5 B16F10 luciferase-tagged melanoma cells, 1*10^6 GEMM6 melanoma cells or 2*10^6 LCC cells were implanted subcutaneously into C57BL/6J mice (randomized, both males and females, 000664 The Jackson laboratory). When indicated, mice received intraperitoneal injections 7 days after implantation with 100 μl of 5 mg/kg cisplatin (Tocris), 100 μl of 10 mg/kg BVT948 (Tocris) or 100 μl of 30 mg/kg of vemurafenib. 5 mice were used per experimental group and tumors were harvested when they reached 1.5 cm in any direction.
# Immunohistochemistry analysis. Immunohistochemistry assay was carried out in formalin-fixed, paraffin-embedded 4 μm sections using primary antibodies against F4:80 (AbD Serotec), CD11b (Abcam), CD4 (eBioscience) or CD8a (eBioscience) on a Discovery Ultra Automated IHC staining system (Ventana). Sections were then imaged using a ScanScope XT microscope (Aperio) and quantified using Aperio software.
substance,measurement,setting,value
BVT948,DAMP mediated macrophage activation (pro-inflammatory gene expression),[1]; B16F10 nutrient deprivation conditioned medium,able to restore DAMP mediated macrophage activation
same,pro-inflammatory gene expression,[1]; GEMM6 nutrient deprivation conditioned medium,rescued pro-inflammatory gene expression
same,"macrophage pro-inflammatory gene expression, PTP1b inhibition in combination with Cisplatin","[2]; BVT948 with Cisplatin 50 μM to 500 μM, wildtype macrophages with B16F10 cells","able to restore macrophage pro-inflammatory gene expression, in a dose dependent manner"
same,M1 gene expression in MyD88 knockout macrophages,"[2]; increasing Cisplatin, with or without BVT948","Neither increasing concentrations of Cisplatin, nor PTP1 b inhibition, were able to restore M1 gene expression"
same,"B16F10 tumor growth, monotherapy vs vehicle","[3]; BVT948 10 mg/kg or Cisplatin 5 mg/kg intraperitoneal, treatment from 50 mm^3",did not significantly reduce
same,"decrease in B16F10 tumor growth, combination",[3]; BVT948 in combination with Cisplatin,roughly 50%
same,reduction in tumor viability (H&E staining),"[3]; BVT948 monotherapy, B16F10 tumors",20%
same,intra-tumoral immune infiltrate,"[3]; BVT948 monotherapy, end-stage B16F10",some increases in macrophage and T cells
